# PMC10363032 (Cancer Chemotherapy and Pharmacology, 2023)
# Legend:
# [1] = safety and tolerability, adverse events (CTCAE version 4.03) in patients
# Description: Safety was appraised throughout the study by the assessment of clinical and laboratory adverse events (AEs; graded by Common Terminology Criteria for Adverse Events [CTCAE], version 4.03), physical examination, and evaluation of vital signs and laboratory data (clinical chemistry and hematology).
# Patients were evaluated according to the treatment received.
# Wee1 = test system: Wee1; design: method as in PMID 25964244, PMID 19887545; details: read-out: half-maximal inhibitory concentration (IC50); cited from earlier work
# [2] = after receiving adavosertib, all 30 patients
# [3] = probe cocktail plus adavosertib 26 patients, adavosertib alone on days 1 and 2, 30
# [4] = probe cocktail plus adavosertib n = 26, adavosertib alone n = 30
smiles,measurement,setting,value
C=CCn1c(=O)c2cnc(Nc3ccc(N4CCN(C)CC4)cc3)nc2n1-c1cccc(C(C)(C)O)n1 [adavosertib],"Any AE (causally related), grade ≥3",[1]; Total (n = 30),6 (20.0) Number of patients (%)
same,"Blood and lymphatic system disorders (causally related), any grade",[1]; Total (n = 30),4 (13.3) Number of patients (%)
same,"Blood and lymphatic system disorders (causally related), grade ≥3",[1]; Total (n = 30),3 (10.0) Number of patients (%)
same,"Blood creatinine increased (causally related), any grade",[1]; Total (n = 30),1 (3.3) Number of patients (%)
same,"Blood creatinine increased (causally related), grade ≥3",[1]; Total (n = 30),0 Number of patients (%)
same,"Decreased appetite (causally related), any grade",[1]; Total (n = 30),1 (3.3) Number of patients (%)
same,"Decreased appetite (causally related), grade ≥3",[1]; Total (n = 30),0 Number of patients (%)
same,"Dehydration (causally related), any grade",[1]; Total (n = 30),2 (6.7) Number of patients (%)
same,"Dehydration (causally related), grade ≥3",[1]; Total (n = 30),1 (3.3) Number of patients (%)
same,"Diarrhea (causally related), any grade",[1]; Total (n = 30),14 (46.7) Number of patients (%)
same,"Diarrhea (causally related), grade ≥3",[1]; Total (n = 30),3 (10.0) Number of patients (%)
same,"Dizziness (causally related), any grade",[1]; Total (n = 30),2 (6.7) Number of patients (%)
same,"Dizziness (causally related), grade ≥3",[1]; Total (n = 30),0 Number of patients (%)
same,"Fatigue (causally related), any grade",[1]; Total (n = 30),1 (3.3) Number of patients (%)
same,"Fatigue (causally related), grade ≥3",[1]; Total (n = 30),0 Number of patients (%)
same,"Flushing (causally related), any grade",[1]; Total (n = 30),1 (3.3) Number of patients (%)
same,"Flushing (causally related), grade ≥3",[1]; Total (n = 30),0 Number of patients (%)
same,"Gastrointestinal disorders (causally related), any grade",[1]; Total (n = 30),17 (56.7) Number of patients (%)
same,"Gastrointestinal disorders (causally related), grade ≥3",[1]; Total (n = 30),3 (10.0) Number of patients (%)
same,"General disorders and administration site conditions (causally related), any grade",[1]; Total (n = 30),1 (3.3) Number of patients (%)
same,"General disorders and administration site conditions (causally related), grade ≥3",[1]; Total (n = 30),0 Number of patients (%)
same,"Hypokalemia (causally related), any grade",[1]; Total (n = 30),1 (3.3) Number of patients (%)
same,"Hypokalemia (causally related), grade ≥3",[1]; Total (n = 30),1 (3.3) Number of patients (%)
same,"Investigations (causally related), any grade",[1]; Total (n = 30),4 (13.3) Number of patients (%)
same,"Investigations (causally related), grade ≥3",[1]; Total (n = 30),0 Number of patients (%)
same,"Metabolism and nutrition disorders (causally related), any grade",[1]; Total (n = 30),3 (10.0) Number of patients (%)
same,"Metabolism and nutrition disorders (causally related), grade ≥3",[1]; Total (n = 30),2 (6.7) Number of patients (%)
same,"Muscle spasms (causally related), any grade",[1]; Total (n = 30),1 (3.3) Number of patients (%)
same,"Muscle spasms (causally related), grade ≥3",[1]; Total (n = 30),0 Number of patients (%)
same,"Musculoskeletal and connective tissue disorders (causally related), any grade",[1]; Total (n = 30),1 (3.3) Number of patients (%)
same,"Musculoskeletal and connective tissue disorders (causally related), grade ≥3",[1]; Total (n = 30),0 Number of patients (%)
same,"Nasal ulcer (causally related), any grade",[1]; Total (n = 30),1 (3.3) Number of patients (%)
same,"Nasal ulcer (causally related), grade ≥3",[1]; Total (n = 30),0 Number of patients (%)
same,"Nausea (causally related), any grade",[1]; Total (n = 30),6 (20.0) Number of patients (%)
same,"Nausea (causally related), grade ≥3",[1]; Total (n = 30),1 (3.3) Number of patients (%)
same,"Nervous system disorders (causally related), any grade",[1]; Total (n = 30),2 (6.7) Number of patients (%)
same,"Nervous system disorders (causally related), grade ≥3",[1]; Total (n = 30),0 Number of patients (%)
same,"Neutropenia (causally related), any grade",[1]; Total (n = 30),2 (6.7) Number of patients (%)
same,"Neutropenia (causally related), grade ≥3",[1]; Total (n = 30),2 (6.7) Number of patients (%)
same,"Pancreatitis (causally related), any grade",[1]; Total (n = 30),1 (3.3) Number of patients (%)
same,"Pancreatitis (causally related), grade ≥3",[1]; Total (n = 30),1 (3.3) Number of patients (%)
same,"Renal and urinary disorders (causally related), any grade",[1]; Total (n = 30),1 (3.3) Number of patients (%)
same,"Renal and urinary disorders (causally related), grade ≥3",[1]; Total (n = 30),1 (3.3) Number of patients (%)
same,"Respiratory, thoracic and mediastinal disorders (causally related), any grade",[1]; Total (n = 30),1 (3.3) Number of patients (%)
same,"Respiratory, thoracic and mediastinal disorders (causally related), grade ≥3",[1]; Total (n = 30),0 Number of patients (%)
same,"Stomatitis (causally related), any grade",[1]; Total (n = 30),1 (3.3) Number of patients (%)
same,"Stomatitis (causally related), grade ≥3",[1]; Total (n = 30),0 Number of patients (%)
same,"Thrombocytopenia (causally related), any grade",[1]; Total (n = 30),2 (6.7) Number of patients (%)
same,"Thrombocytopenia (causally related), grade ≥3",[1]; Total (n = 30),0 Number of patients (%)
same,"Vascular disorders (causally related), any grade",[1]; Total (n = 30),1 (3.3) Number of patients (%)
same,"Vascular disorders (causally related), grade ≥3",[1]; Total (n = 30),0 Number of patients (%)
same,"Vomiting (causally related), any grade",[1]; Total (n = 30),7 (23.3) Number of patients (%)
same,"Vomiting (causally related), grade ≥3",[1]; Total (n = 30),1 (3.3) Number of patients (%)
same,"Weight decreased (causally related), any grade",[1]; Total (n = 30),3 (10.0) Number of patients (%)
same,"Weight decreased (causally related), grade ≥3",[1]; Total (n = 30),0 Number of patients (%)
same,patients with treatment-related vomiting,[1]; adavosertib alone n = 30,20.0%
same,patients reporting serious AEs (SAEs) considered related to adavosertib,"[1]; adavosertib alone on days 1 and 2, two SAEs: acute kidney injury and pancreatitis, led to discontinuation",One
same,patients with treatment-related adverse events,[1]; [2],63%
same,patients with treatment-related adverse events grade ≥ 3,[1]; [2],20%
same,patients with CTCAE grade ≥ 3 acute kidney injury,[1]; any cause,3.3%
same,patients with CTCAE grade ≥ 3 dehydration,[1]; any cause,3.3%
same,patients with CTCAE grade ≥ 3 diarrhea,[1]; any cause,10.0%
same,patients with CTCAE grade ≥ 3 hypokalemia,[1]; any cause,3.3%
same,patients with CTCAE grade ≥ 3 hypoxia,[1]; any cause,3.3%
same,patients with CTCAE grade ≥ 3 nausea,[1]; any cause,3.3%
same,patients with CTCAE grade ≥ 3 necrotizing soft-tissue infection,[1]; any cause,3.3%
same,patients with CTCAE grade ≥ 3 neutropenia,[1]; any cause,3.3%
same,patients with CTCAE grade ≥ 3 pancreatitis,[1]; any cause,3.3%
same,patients with CTCAE grade ≥ 3 small-intestinal obstruction,[1]; any cause,3.3%
same,patients with CTCAE grade ≥ 3 thrombocytopenia,[1]; any cause,3.3%
same,patients with CTCAE grade ≥ 3 vomiting,[1]; any cause,3.3%
same,patients who experienced AEs,"[1]; cocktail alone 33 patients, probe cocktail plus adavosertib 26, adavosertib alone on days 1 and 2, 30",53.3%
same,patients who discontinued treatment because of AEs,"[1]; grade 3 diarrhea (related to adavosertib), grade 3 small-bowel obstruction (not related)",Two
same,patients with adverse events of CTCAE grade ≥ 3,[1]; [3],16.7%
same,patients with treatment-related AEs,[1]; [3],36.7%
same,patients with treatment-related diarrhea,[1]; [4],33.3%
same,patients with treatment-related nausea,[1]; [4],10.0%
same,IC50,Wee1,5.2 nM
